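Briefly, cells in 96-well plates were exposed to five compound concentrations for 48 h, and endpoints were estimated by linear interpolation. Here, GI50 denotes the concentration required for 50% inhibition of growth.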 Calls of active or inactive are those of the source. Rule as the data show it: active = GI50 up to about 1.1 µM and inactive = higher.
Legend:
Assay in all cases: NCI-60 cell line screen, 48 h
DMS-273 = tested on: DMS-273
A498 = tested on: A498
HL-60 = tested on: HL-60
OVCAR-8 = tested on: OVCAR-8
NCI-H23 = tested on: NCI-H23
SF-295 = tested on: SF-295
COLO 205 = tested on: COLO 205
LOX IMVI = tested on: LOX IMVI
ACHN = tested on: ACHN
RXF 393 = tested on: RXF 393
BT-549 = tested on: BT-549
OVCAR-3 = tested on: OVCAR-3
SNB-19 = tested on: SNB-19
CAKI-1 = tested on: CAKI-1
SK-MEL-28 = tested on: SK-MEL-28
SF-539 = tested on: SF-539
CCRF-CEM = tested on: CCRF-CEM
SK-MEL-5 = tested on: SK-MEL-5
SW-620 = tested on: SW-620
UACC-257 = tested on: UACC-257
TK-10 = tested on: TK-10
786-0 = tested on: 786-0
MDA-N = tested on: MDA-N
MCF7 = tested on: MCF7
SK-OV-3 = tested on: SK-OV-3
UO-31 = tested on: UO-31
M19-MEL = tested on: M19-MEL
DU-145 = tested on: DU-145
SN12C = tested on: SN12C
NCI/ADR-RES = tested on: NCI/ADR-RES
T47D = tested on: T47D
EKVX = tested on: EKVX
MOLT-4 = tested on: MOLT-4
NCI-H522 = tested on: NCI-H522
PC-3 = tested on: PC-3
HCT-116 = tested on: HCT-116
KM-20L2 = tested on: KM-20L2
HCC 2998 = tested on: HCC 2998
K562 = tested on: K562
HOP-92 = tested on: HOP-92
HCT-15 = tested on: HCT-15
IGROV-1 = tested on: IGROV-1
M14 = tested on: M14
SK-MEL-2 = tested on: SK-MEL-2
NCI-H460 = tested on: NCI-H460
OVCAR-5 = tested on: OVCAR-5
Malme-3M = tested on: Malme-3M
A549 = tested on: A549
DLD-1 = tested on: DLD-1
LXFL 529 = tested on: LXFL 529
Hs-578T = tested on: Hs-578T
DMS-114 = tested on: DMS-114
MDA-MB-435 = tested on: MDA-MB-435
OVCAR-4 = tested on: OVCAR-4
SNB-75 = tested on: SNB-75
U-251 = tested on: U-251
HT-29 = tested on: HT-29
SF-268 = tested on: SF-268
RXF 631 = tested on: RXF 631
XF498 = tested on: XF498
RPMI-8226 = tested on: RPMI-8226
KM12 = tested on: KM12
UACC-62 = tested on: UACC-62
SR = tested on: SR
HOP-62 = tested on: HOP-62
NCI-H226 = tested on: NCI-H226
MDA-MB-231 = tested on: MDA-MB-231

In the case of `O=C1C2=C(c3ccccc31)C(c1ccccc1)N1C(=O)CSC1=N2` (configuration not stated), the GI50 (DMS-273) is reported as 55.8 µM (inactive), the GI50 (A498) is reported as > 100 µM (inactive) and the GI50 (HL-60) is reported as 40.1 µM (inactive). For the same compound, the GI50 (OVCAR-8) was > 71.8 µM (inactive), the GI50 (NCI-H23) was 56.4 µM (inactive) and the GI50 (SF-295) was 41.5 µM (inactive). For the same compound, the GI50 (COLO 205) was > 56.4 µM (inactive), the GI50 (LOX IMVI) was 37.3 µM (inactive) and the GI50 (ACHN) was > 79.4 µM (inactive). The GI50 (RXF 393) was 25.6 µM (inactive), the GI50 (BT-549) was 24.5 µM (inactive) and the GI50 (OVCAR-3) was 51.2 µM (inactive). For the same compound, the GI50 (SNB-19) was 55.7 µM (inactive), the GI50 (CAKI-1) was 49.8 µM (inactive) and the GI50 (SK-MEL-28) was 63.5 µM (inactive). For the same compound, the GI50 (SF-539) was > 53.7 µM (inactive), the GI50 (CCRF-CEM) was 48.4 µM (inactive) and the GI50 (SK-MEL-5) was 36.9 µM (inactive). For the same compound, the GI50 (SW-620) was 50.8 µM (inactive), the GI50 (UACC-257) was > 86.5 µM (inactive) and the GI50 (TK-10) was > 75.3 µM (inactive). For the same compound, the GI50 (786-0) was > 54.6 µM (inactive), the GI50 (MDA-N) was 17 µM (inactive) and the GI50 (MCF7) was 33.8 µM (inactive). For the same compound, the GI50 (SK-OV-3) was > 70.6 µM (inactive), the GI50 (UO-31) was 34.8 µM (inactive) and the GI50 (M19-MEL) was > 100 µM (inactive). For the same compound, the GI50 (DU-145) was 52.4 µM (inactive), the GI50 (SN12C) was > 53.6 µM (inactive) and the GI50 (NCI/ADR-RES) was 24 µM (inactive). The GI50 (T47D) was 29.6 µM (inactive), the GI50 (EKVX) was > 55.7 µM (inactive) and the GI50 (MOLT-4) was 38.8 µM (inactive). For the same compound, the GI50 (NCI-H522) was 29.4 µM (inactive), the GI50 (PC-3) was 34.4 µM (inactive) and the GI50 (HCT-116) was > 56.4 µM (inactive). For the same compound, the GI50 (KM-20L2) was 91 µM (inactive), the GI50 (HCC 2998) was > 68.1 µM (inactive) and the GI50 (K562) was 37.2 µM (inactive). The GI50 (HOP-92) was 32.6 µM (inactive), the GI50 (HCT-15) was 40.3 µM and the GI50 (IGROV-1) was > 57.4 µM (inactive). For the same compound, the GI50 (M14) was 49.4 µM (inactive), the GI50 (SK-MEL-2) was 49 µM (inactive) and the GI50 (NCI-H460) was > 57.1 µM (inactive). The GI50 (OVCAR-5) was > 85.5 µM (inactive), the GI50 (Malme-3M) was 71.9 µM (inactive) and the GI50 (A549) was 67.1 µM (inactive). For the same compound, the GI50 (DLD-1) was > 100 µM (inactive), the GI50 (LXFL 529) was 52 µM (inactive) and the GI50 (Hs-578T) was 35.6 µM (inactive). For the same compound, the GI50 (DMS-114) was 43.1 µM (inactive), the GI50 (MDA-MB-435) was 17.4 µM (inactive) and the GI50 (OVCAR-4) was 35.3 µM (inactive). For the same compound, the GI50 (SNB-75) was 23.3 µM (inactive), the GI50 (U-251) was > 63 µM (inactive) and the GI50 (HT-29) was 43.4 µM (inactive). The GI50 (SF-268) was 58.1 µM (inactive), the GI50 (RXF 631) was 80.9 µM (inactive) and the GI50 (XF498) was > 100 µM (inactive). For the same compound, the GI50 (RPMI-8226) was 56.9 µM (inactive), the GI50 (KM12) was > 53.6 µM (inactive) and the GI50 (UACC-62) was 37.8 µM (inactive). The GI50 (SR) was 26.4 µM (inactive), the GI50 (HOP-62) was 83.8 µM (inactive) and the GI50 (NCI-H226) was 38.5 µM (inactive). The GI50 (MDA-MB-231) was 44.8 µM (inactive).
